Patent publication US20090253669A1, “Substituted Sulfonamide Compounds” (GRUENENTHAL GmbH, priority 2008, published 2009)
Read-outs that look alike come from different tables or passages of the source.

Assays:
[1] = biological target: T1, B1R receptor of the rat (rB1R) (Rattus norvegicus, UniProt P97583); test: FLIPR Ca2+ assay on rB1R-transfected CHO K1 cells, antagonistic action; type: cell-based
T1 construct: host or cells: CHO K1 cells
T1 sequence (P97583 1-337): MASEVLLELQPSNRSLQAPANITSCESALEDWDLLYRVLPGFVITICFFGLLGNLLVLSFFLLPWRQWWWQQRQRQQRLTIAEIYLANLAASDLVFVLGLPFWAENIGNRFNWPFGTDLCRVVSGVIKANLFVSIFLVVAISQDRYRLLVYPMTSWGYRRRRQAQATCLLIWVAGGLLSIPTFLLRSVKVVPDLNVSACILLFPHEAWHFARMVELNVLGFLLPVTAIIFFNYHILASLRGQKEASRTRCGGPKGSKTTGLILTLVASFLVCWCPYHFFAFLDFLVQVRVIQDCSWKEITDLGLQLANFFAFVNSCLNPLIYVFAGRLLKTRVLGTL

[2] = biological target: T2, human B1R receptor (hB1R) (Homo sapiens, UniProt P46663); test: FLIPR Ca2+ assay on hB1R-transfected CHO K1 cells, antagonistic action; type: cell-based
T2 construct: host or cells: CHO K1 cells
T2 sequence (P46663 1-353): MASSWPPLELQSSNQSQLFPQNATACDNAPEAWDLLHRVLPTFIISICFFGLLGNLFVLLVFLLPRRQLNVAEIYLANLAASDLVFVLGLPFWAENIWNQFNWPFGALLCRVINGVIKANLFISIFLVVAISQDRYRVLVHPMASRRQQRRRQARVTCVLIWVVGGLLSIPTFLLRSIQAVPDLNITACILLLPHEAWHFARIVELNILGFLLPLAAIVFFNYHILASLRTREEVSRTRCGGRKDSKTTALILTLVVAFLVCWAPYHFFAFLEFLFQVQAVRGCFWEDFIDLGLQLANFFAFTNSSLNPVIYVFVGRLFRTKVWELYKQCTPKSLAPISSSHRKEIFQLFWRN

[3] = CHO-K1, 10 μM test substance, agonist Des-Arg9-bradykinin 100 nM, % of maximum achievable inhibition, read-out: rB1R [10 μM] % inhibition
[4] = CHO-K1, 10 μM test substance, agonist Lys-Des-Arg9-bradykinin 0.5 nM, % of maximum achievable inhibition, read-out: hB1R [10 μM] % inhibition

| Compound | inhibition at 10 µM [1, 3] | inhibition at 10 µM [2, 4] | inhibition at 10 µM ([1]; CHO-K1, read-out: rB1R [10 μM] % inhibition) | inhibition at 10 µM ([2]; CHO-K1, read-out: hB1R [10 μM] % inhibition) |
| --- | --- | --- | --- | --- |
| CN(CCC1CCC(c2ccccc2)(N(C)C)CC1)C(=O)CC1CCCCN1S(=O)(=O)c1cccc(C(F)(F)F)c1 (stereo not shown) [Compound 125, N-(2-(4-(dimethylamino)-4-phenylcyclohexyl)ethyl)-N-methyl-2-(1-(3-(trifluoromethyl)phenylsulfonyl)piperidin-2-yl)acetamide] | 56% | 98% |  |  |
| Cc1cc(S(=O)(=O)N2CCCCC2CCC(=O)N2CCC(c3cccc(F)c3)(N3CCN(C)CC3)CC2)c(C)cc1Cl (stereo not shown) [Compound 135, 3-(1-(4-chloro-2,5-dimethylphenylsulfonyl)piperidin-2-yl)-1-(4-(3-fluorophenyl)-4-(4-methylpiperazin-1-yl)piperidin-1-yl)propan-1-one] | 37% | 104% |  |  |
| COc1cc(C)c(S(=O)(=O)N2CCCCC2COCC(=O)N(C)CC2CCC(Cc3ccccc3)(N3CCCC3)CC2)c(C)c1 (stereo not shown) [Compound 78, N-((4-benzyl-4-(pyrrolidin-1-yl)cyclohexyl)methyl)-2-((1-(4-methoxy-2,6-dimethylphenylsulfonyl)piperidin-2-yl)methoxy)-N-methylacetamide] | 99% | 101% |  |  |
| COc1cc(C)c(S(=O)(=O)N2CCCC(COCC(=O)NC3CCC(c4ccccc4)(N4CCCC4)CC3)C2)c(C)c1 (stereo not shown) [Compound 187, 2-((1-(4-methoxy-2,6-dimethylphenylsulfonyl)piperidin-3-yl)methoxy)-N-(4-phenyl-4-(pyrrolidin-1-yl)cyclohexyl)acetamide] | 63% | 95% |  |  |
| CN1CCN(C2(c3cccc(F)c3)CCN(C(=O)CCCC3CCCCN3S(=O)(=O)c3ccccc3C(F)(F)F)CC2)CC1 (stereo not shown) [Compound 213, 1-(4-(3-Fluorophenyl)-4-(4-methylpiperazin-1-yl)piperidin-1-yl)-4-(1-(2-(trifluoromethyl)phenylsulfonyl)piperidin-2-yl)butan-1-one] |  |  | 100% | 100% |
| CN1CCN(C2(CCc3ccccc3)CCN(C(=O)COCC3CCc4ccccc4N3S(=O)(=O)c3ccc(Cl)c(Cl)c3)CC2)CC1 (stereo not shown) [Compound 116, 2-((1-(3,4-dichlorophenylsulfonyl)-1,2,3,4-tetrahydroquinolin-2-yl)methoxy)-1-(4-(4-methylpiperazin-1-yl)-4-phenethylpiperidin-1-yl)ethanone] | 71% | 57% |  |  |
| COc1cc(C)c(S(=O)(=O)N(C)CCOCC(=O)N(C)CCC2CCC(c3ccccc3)(N3CCCC3)CC2)c(C)c1 (stereo not shown) [Compound 34, 2-(2-(4-methoxy-N,2,6-trimethylphenylsulfonamido)ethoxy)-N-methyl-N-(2-(4-phenyl-4-(pyrrolidin-1-yl)cyclohexyl)ethyl)acetamide] | 101% | 104% |  |  |
| COc1cc(C)c(S(=O)(=O)N(C)CCOCC(=O)N2CCC(N)(c3ccccc3)CC2)c(C)c1 [Compound 196, N-(2-(2-(4-Amino-4-phenylpiperidin-1-yl)-2-oxoethoxy)ethyl)-4-methoxy-N,2,6-trimethylbenzenesulfonamide] | 100% | 103% |  |  |
| COc1cc(C)c(S(=O)(=O)N2CCCC[C@H]2COCC(=O)N(C)CCC2CCC(c3ccccc3)(N3CCCC3)CC2)c(C)c1 (stereo partly drawn) [Compound 200, (S)-2-((1-(4-methoxy-2,6-dimethylphenylsulfonyl)piperidin-2-yl)methoxy)-N-methyl-N-(2-(4-phenyl-4-(pyrrolidin-1-yl)cyclohexyl)ethyl)acetamide] | 105% | 99% |  |  |
| COc1cc(C)c(S(=O)(=O)N(C)CCOCC(=O)N(C)CC2CCC(Cc3ccccc3)(N3CCN(C)CC3)CC2)c(C)c1 (stereo not shown) [Compound 183, N-((4-benzyl-4-(4-methylpiperazin-1-yl)cyclohexyl)methyl)-2-(2-(4-methoxy-N,2,6-trimethylphenylsulfonamido)ethoxy)-N-methylacetamide] | 66% | 102% |  |  |
| COc1cc(C)c(S(=O)(=O)N(C)CCOCC(=O)N2CCC(c3ccncc3)(N(C)C)CC2)c(C)c1 [Compound 206, N-(2-(2-(4-(dimethylamino)-4-(pyridin-4-yl)piperidin-1-yl)-2-oxoethoxy)ethyl)-4-methoxy-N,2,6-trimethylbenzenesulfonamide] | 99% | 100% |  |  |
| COc1cc(C)c(S(=O)(=O)N2CCCCC2COCC(=O)N2CCC(c3cccc(F)c3)(N3CCN(C)CC3)CC2)c(C)c1 (stereo not shown) [Compound 211, 1-(4-(3-Fluorophenyl)-4-(4-methylpiperazin-1-yl)piperidin-1-yl)-2-((1-(4-methoxy-2,6-dimethylphenylsulfonyl)piperidin-2-yl)methoxy)ethanone] | 101% | 100% |  |  |
| Cc1cc(S(=O)(=O)N2CCCCC2CCC(=O)N2CCC(c3ccccc3)(N3CCN(C)CC3)CC2)c(C)cc1Cl (stereo not shown) [Compound 110, 3-(1-(4-chloro-2,5-dimethylphenylsulfonyl)piperidin-2-yl)-1-(4-(4-methylpiperazin-1-yl)-4-phenylpiperidin-1-yl)propan-1-one] | 78% | 104% |  |  |
| COc1cc(C)c(S(=O)(=O)N(C)CCOCC(=O)NC2CCC(c3cccc(F)c3)(N(C)C)CC2)c(C)c1 (stereo not shown) [Compound 6, N-(4-(dimethylamino)-4-(3-fluorophenyl)cyclohexyl)-2-(2-(4-methoxy-N,2,6-trimethylphenylsulfonamido)ethoxy)acetamide] | 100% | 100% |  |  |
| Cc1cc(S(=O)(=O)N2CCCCC2CCC(=O)N(C)CCC2CCC(Cc3ccccc3)(N3CCCC3)CC2)c(C)cc1Cl (stereo not shown) [Compound 117, N-(2-(4-benzyl-4-(pyrrolidin-1-yl)cyclohexyl)ethyl)-3-(1-(4-chloro-2,5-dimethylphenylsulfonyl)piperidin-2-yl)-N-methylpropanamide] | 70% | 103% |  |  |
| CN(CCC1CCC(c2ccccc2)(N2CCCC2)CC1)C(=O)CC(NS(=O)(=O)c1ccc2ccccc2c1)c1ccccc1 (stereo not shown) [Compound 40, N-methyl-3-(naphthalene-2-sulfonamido)-3-phenyl-N-(2-(4-phenyl-4-(pyrrolidin-1-yl)cyclohexyl)ethyl)propanamide] | 101% | 103% |  |  |
| Cc1cc(C)c(S(=O)(=O)N2CCC(OCC(=O)NC3CCC(CCc4ccccc4)(N(C)C)CC3)C2)c(C)c1 (stereo not shown) [Compound 29, N-(4-(dimethylamino)-4-phenethylcyclohexyl)-2-(1-(mesitylsulfonyl)pyrrolidin-3-yloxy)acetamide] | 46% | 61% |  |  |
| CN1CCN(C2(c3cccc(F)c3)CCN(C(=O)CC(NS(=O)(=O)c3ccc4ccccc4c3)c3ccccc3)CC2)CC1 (stereo not shown) [Compound 120, N-(3-(4-(3-fluorophenyl)-4-(4-methylpiperazin-1-yl)piperidin-1-yl)-3-oxo-1-phenylpropyl)naphthalene-2-sulfonamide] | 67% | 97% |  |  |
| COc1cc(C)c(S(=O)(=O)N2CCCC2COCC(=O)N(C)CC2CCC(CCc3ccccc3)(N3CCN(C)CC3)CC2)c(C)c1 (stereo not shown) [Compound 148, 2-((1-(4-methoxy-2,6-dimethylphenylsulfonyl)pyrrolidin-2-yl)methoxy)-N-methyl-N-((4-(4-methylpiperazin-1-yl)-4-phenethylcyclohexyl)methyl)acetamide] | 106% | 102% |  |  |
| COc1cc(C)c(S(=O)(=O)N2CCCCC2COCC(=O)N(C)CCC2CCC(c3ccccc3)(N3CCCC3)CC2)c(C)c1 (stereo not shown) [Compound 60, 2-((1-(4-methoxy-2,6-dimethylphenylsulfonyl)piperidin-2-yl)methoxy)-N-methyl-N-(2-(4-phenyl-4-(pyrrolidin-1-yl)cyclohexyl)ethyl)acetamide] | 100% | 103% |  |  |
| COc1cc(C)c(S(=O)(=O)N(C)CCOCC(=O)N2CCC(CCc3ccccc3)(N(C)C)CC2)c(C)c1 [Compound 48, N-(2-(2-(4-(dimethylamino)-4-phenethylpiperidin-1-yl)-2-oxoethoxy)ethyl)-4-methoxy-N,2,6-trimethylbenzenesulfonamide] | 100% | 102% |  |  |
| COc1cc(C)c(S(=O)(=O)N(C)CCOCC(=O)NC2CCC(c3ccccc3)(N3CCCCC3)CC2)c(C)c1C (stereo not shown) [Compound 28, 2-(2-(4-methoxy-N,2,3,6-tetramethylphenylsulfonamido)ethoxy)-N-(4-phenyl-4-(piperidin-1-yl)cyclohexyl)acetamide] | 48% | 60% |  |  |
| CN(CCC1CCC(c2ccccc2)(N(C)C)CC1)C(=O)CC(NS(=O)(=O)c1ccc2ccccc2c1)c1ccccc1 (stereo not shown) [Compound 90, N-(2-(4-(dimethylamino)-4-phenylcyclohexyl)ethyl)-N-methyl-3-(naphthalene-2-sulfonamido)-3-phenylpropanamide] | 97% | 97% |  |  |
